One data set relates to HIV-1. The experiment in a line: inhibition of HIV-1; reduction of cytopathogenic effect in virus-infected Leu-3a-positive CEM cells (MTT assay). It counts as cell-based, strain HTVL-IIIB. The following applies: Human immunodeficiency virus 1, CCRF-CEM, multiplicity of infection 0.1, MTT read on 7th to 9th day post-infection. On the procedure:
Inhibitory activity against HIV-1 was shown by tests involving plating of susceptible human host cells which are syncytium-sensitive with and without virus in microculture plates, adding various concentrations of the test compound, incubating the plates for 7 to 9 days (during which time infected, non-drug treated control cells are largely or totally destroyed by the virus), and then determining the remaining number of viable cells with a colorometric endpoint.
Various illustrative compounds synthesized above were tested for inhibition of HIV-1 in a test which measured reduction of cytopathogenic effect in virus-infected syncytium-sensitive Leu-3a-positive CEM cells grown in tissue culture as follows:
Tissue culture plates were incubated at 37° C. in a humidified, 5% CO2 atmosphere and observed microscopically for toxicity and/or cytopathogenic effect (CPE). At 1 hour prior to infection each test article was prepared from the frozen stock, and a 20 μl volume of each dilution (prepared as a 10× concentration) was added to the appropriate wells of both infected and uninfected cells.
Assays were done in 96-well tissue culture plates. CEM cells were treated with polybrene at a concentration of 2 μg/ml, and an 80 μl volume of cells (1×10^4 cells) was dispensed into each well. A 100 μl volume of each test article dilution (prepared as a 2× concentration) was added to 5 wells of cells, and the cells were incubated at 37° C. for 1 hour. A frozen culture of HIV-1, strain HTVL-IIIB, was diluted in culture medium to a concentration of 5×10^4 TCID50 per ml, and a 20 μl volume (containing 10^3 TCID50 of virus) was added to 3 of the wells for each test article concentration. […] A 20 μl volume of normal culture medium was added to the remaining wells to allow evaluation of cytotoxicity. Each plate contained 6 wells of untreated, uninfected, cell control samples and 6 wells of untreated, infected, virus control samples.
On the 7th to 9th day post-infection, the cells in each well were resuspended and a 100 μl sample of each cell suspension was removed for use in an MTT assay. A 20 μl volume of a 5 mg/ml solution of 3-(4,5-dimethylthiazol-2-yl)-2,5-diphenyltetrazolium bromide (MTT) was added to each 100 μl cell suspension, and the cells were incubated at 37° C. in 5% CO2 for 4 hours. […] A 100 μl volume of a solution of 10% sodium dodecyl sulfate in 0.01N hydrochloric acid was added to each sample, and the samples were incubated overnight. The absorbance at 590 nm was determined for each sample using a Molecular Devices Vmax microplate reader. This assay detects drug-induced suppression of viral CPE, as well as drug cytotoxicity, by measuring the generation of MTT-formazan by surviving cells.
On the technique in general: Protection from cytopathic effect is a common read-out in antiviral testing.

The nature of data set [1]: biological half-life in rat hepatic S9 preparation. It counts as in vitro ADME. The following applies: liver s9, rat hepatic S9, approximately 2 mcg/mL, 37° C. Here is the method:
Various illustrative compounds synthesized in Examples above were tested for biological half-life. Compounds were incubated at a concentration of approximately 2 mcg/mL in a rat liver S9 preparation which was prepared according to standard procedures with minor modifications^1. The reactions were conducted at 37° C. in a water bath and stopped by the addition of ice cold methanol at various times ranging from 0 to 20 minutes. Aliquots of the incubations were analyzed by high performance liquid chromatography (HPLC) for the compound of interest. The analyses were conducted on a Waters HPLC system consisting of a model 510 pump and a Wisp model 712 automatic injector. Waters C18 columns were used to perform the separations. The compounds were detected by UV adsorption. The mobile phases consisted of acetonitrile and sodium phosphate buffer (40 mM, pH 3.5); specific conditions were varied slightly for each compound. Concentrations of each compound were determined with time and the rate of metabolism was determined by analyzing the data using the CSTRIP program^2.
^1 Subcellular Fractionation of Rat Liver. S. Fleischer and M. Kervina in Methods of Enzymology, Vol. XXXI, Biomembranes Part A, S. Fleischer and L. Packer Eds., pp. 6-41 (1974).
^2 A. T. Sedman and J. G. Warner, "CSTRIP. A Fortran IV Computer Program for Obtaining Initial Polyexponential Parameter Estimates.", J. Pharm. Sci. 65, 1006-1010 (1976).

Where [2] appears, read: 0 to 20 minutes, read-out: Half-life.

By EC50 is commonly meant the concentration at which the effect is half-maximal. A low value points to greater potency. As a reminder, the half-life is the time in which the quantity being followed falls by half.

Read-outs that look alike come from different tables or passages of the source.

Turning to `CCOC(=O)[C@H](Cc1ccccc1)NC(=O)CCCCCCCCCCCOC` [Example 49, N-(12-Methoxy-1-oxododecyl)-L-phenylalanine, Ethyl ester], the response in the data set on HIV-1 was half-maximal at 5.4 µM (EC50). The half-life in data set [1] (setting [2]) was 1.07 min. In the data set with HIV-1, `CCOC(=O)[C@@H](CCCCNC(=O)OCc1ccccc1Cl)NC(=O)CCCCCCCCCCCOC` [Example 68, N6-[[(2-Chlorophenyl)methoxy]carbonyl]-N2-(12-methoxy-1-oxododecyl)-D-lysine, Ethyl ester] returned a concentration giving a half-maximal response (EC50) of 13.1 µM. Also, the half-life in data set [1] (setting [2]) amounted to 8.54 min.

With `COCCCCCCCCCCCC(=O)NCc1ccccc1` [Example 14, 12-Methoxy-N-(phenylmethyl)dodecanamide], the EC50 in the data set with HIV-1 came out at 3.8 µM. Further, the half-life in data set [1] (setting [2]) amounted to 2.41 min. For `CCOC(=O)c1cccc(NC(=O)CCCCCCCCCCCOC)c1` [Example 17, Ethyl 3-[(12-Methoxy-1-oxododecyl)amino]-benzoate], the concentration giving a half-maximal response (EC50) in the data set with HIV-1 came to 8.2 µM. Further, the half-life in data set [1] (read-out: Half-life (not detected at initial sampling)) was less than 5 min. `CCCCCCCCCCOCCC(=O)N[C@H](Cc1ccccc1)C(=O)OCC` [Example 56, N-(3-(Decyloxy)-1-oxopropyl]-D-phenylalanine, Ethyl ester]: in the data set on HIV-1, the 50% effective concentration (EC50) was more than 240 µM. Besides, in data set [1] (setting [2]), the half-life stood at 1.97 min. Turning to `COCCCCCCCCCCCC(=O)Nc1cccc(C(=O)O)c1` [Example 18, 3-[(12-Methoxy-1-oxododecyl)amino]benzoic acid], the concentration giving a half-maximal response (EC50) with HIV-1 was more than 285 µM. In addition, the half-life in data set [1] (setting [2]) turned out to be 8.46 min.

In the data set on HIV-1, `CCOC(=O)[C@@H](Cc1c[nH]c2ccccc12)NC(=O)CCCCCCCCCCCOC` [Example 74, N-(12-Methoxy-1-oxododecyl)-D-tryptophan, Ethyl ester] returned an EC50 of more than 221 µM.

Molecule `COCCCCCCCCCCCc1nnn[nH]1` [Example 85, 5-(11-Methoxyundecyl)-1H-tetrazole] displayed an EC50 in the data set with HIV-1 of more than 390 µM.

For `CCOC(=O)[C@H](Cc1c[nH]c2ccccc12)NC(=O)CCCCCCCCCCCOC` [Example 71, N-(12-Methoxy-1-oxododecyl)-L-tryptophan, Ethyl ester], the EC50 in the data set with HIV-1 came out at 18 µM.

These data come from patent publication US5929110A, “Fatty acid analogs and prodrugs” (G. D. Searle & Co., priority 1998, dated 1999).
